Series [1] has as its system canonical Wnt-β-catenin cellular messaging system (16xTCF-TK-FireFly-Luci reporter, Wnt3a and Dkk1 co-transfected U2OS cells). The experiment in a line: Functional Dkk1-LRP5-TCF-Luciferase Assay in U2OS Cells (table columns: A=MAX FOLD Induction/DMSO CONTROL; B=fold induction @ 2.0 uM; C=fold induction @ 20.0 uM). The format is cell-based, Human. Conditions: maximum fold induction over DMSO control. The method in brief:
(§1)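 U2OS cells co-transfected with 16×TCF-TK-firefly luciferase, TK-Renilla control, Wnt3a and Dkk1, then frozen; thawed cells (~5,000/well, ~5% FBS, phenol red-free RPMI) incubated ~20 h at 37° C. with compound (0.25% DMSO). Firefly luminescence (Bright-Glo) normalized to DMSO mean as fold induction.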

Assay in series [2]: as above
The series is classed as cell-based, Human. Conditions: Homo sapiens; for fold induction at 2 µM / fold induction at 20 µM: U2OS; for fold induction at 2 µM: 2.0 uM compound; for fold induction at 20 µM: 20.0 uM compound; for EC50: U2OS cells, TCF-luciferase reporter. The gist of the method:
as §1

SMILES strings stand for the structures.

In general, fold induction refers to the signal under treatment as a multiple of the control signal. On to `CS(=O)(=O)N1CCC(n2cnc3c(-c4ccc5ccccc5c4)ccnc32)CC1` [3-[1-(methylsulfonyl)piperidin-4-yl]-7-(2-naphthyl)-3H-imidazo[4,5-b]pyridine], for which, in series [1], the “A = MAX FOLD Induction/DMSO CONTROL” value was 1.230. In series [2], the fold induction at 2 µM worked out at 1.66 and the fold induction at 20 µM was 2.52.
Usually EC50 stands for the midpoint of the concentration-response curve. Regarding `c1ccc2cc(-c3ccnc4c3ncn4CCCn3ccnc3)ccc2c1` [3-[3-(1H-imidazol-1-yl)propyl]-7-(2-naphthyl)-3H-imidazo[4,5-b]pyridine], the “A = MAX FOLD Induction/DMSO CONTROL” value in series [1] was 2.870. For the same compound, in series [2], the fold induction at 2 µM is 1.76, the fold induction at 20 µM was determined as 3.31 and the EC50 was determined as 10200 nM.
As for `Oc1cccc(-c2nc3cc(-c4ccc5ccccc5c4)cnc3n2C2CCNCC2)c1` [3-[6-(2-naphthyl)-3-piperidin-4-yl-3H-imidazo[4,5-b]pyridin-2-yl]phenol], in series [1], the “A = MAX FOLD Induction/DMSO CONTROL” value was found to be 1.860. For the same compound, the response in series [2] was half-maximal at 1220 nM (EC50).
In the case of `c1c[nH]c(-c2nc3cc(-c4ccc5ccccc5c4)cnc3n2C2CCNCC2)c1` [6-(2-naphthyl)-3-piperidin-4-yl-2-(1H-pyrrol-2-yl)-3H-imidazo[4,5-b]pyridine], in series [1], the “A = MAX FOLD Induction/DMSO CONTROL” value came to 1.580. Also, in series [2], the fold induction at 2 µM was determined as 1.01 and the fold induction at 20 µM turned out to be 1.99.
Regarding `c1cncc(-c2nc3cc(-c4ccc5ccccc5c4)cnc3n2C2CCNCC2)c1` [6-(2-naphthyl)-3-piperidin-4-yl-2-pyridin-3-yl-3H-imidazo[4,5-b]pyridine], in series [1], the “A = MAX FOLD Induction/DMSO CONTROL” value turned out to be 1.100. Besides, in series [2], the fold induction at 2 µM is 1.75 and the fold induction at 20 µM is 0.005.
On to `c1ccc2cc(-c3ccnc4c3ncn4CC3CCNCC3)ccc2c1` [7-(2-naphthyl)-3-(piperidin-4-ylmethyl)-3H-imidazo[4,5-b]pyridine], for which the “A = MAX FOLD Induction/DMSO CONTROL” value in series [1] is on record as 1.930. The fold induction at 2 µM in series [2] worked out at 2.72.
Consider `c1ccc2cc(-c3ccnc4c3ncn4[C@@H]3CCCNC3)ccc2c1` [7-(2-naphthyl)-3-[(3R)-piperidin-3-yl]-3H-imidazo[4,5-b]pyridine], for which, in series [1], the “A = MAX FOLD Induction/DMSO CONTROL” value is 3.820. In series [2], the fold induction at 2 µM was determined as 3.48, the fold induction at 20 µM worked out at 1.4 and the EC50 was 963 nM.
In the same order, the values of `c1ccc2cc(-c3ccnc4c3ncn4[C@@H]3CCNC3)ccc2c1` [7-(2-naphthyl)-3-[(3R)-pyrrolidin-3-yl]-3H-imidazo[4,5-b]pyridine] are 4.260, 2.06, 1.65 and 3150 nM.
In the same order, the values of `c1ccc2cc(-c3ccnc4c3ncn4[C@H]3CCCNC3)ccc2c1` [7-(2-naphthyl)-3-[(3S)-piperidin-3-yl]-3H-imidazo[4,5-b]pyridine] are 2.303, 1.02, 0.01 and 18 nM.
Turning to `c1ccc2cc(-c3ccnc4c3ncn4[C@H]3CCNC3)ccc2c1` [7-(2-naphthyl)-3-[(3S)-pyrrolidin-3-yl]-3H-imidazo[4,5-b]pyridine], the “A = MAX FOLD Induction/DMSO CONTROL” value in series [1] came out at 2.780. In addition, in series [2], the fold induction at 2 µM worked out at 2.1 and the fold induction at 20 µM is 0.44.
The corresponding values for `c1ccc2cc(-c3ccnc4c3nc(-c3ccncc3)n4C3CCNCC3)ccc2c1` [7-(2-naphthyl)-3-piperidin-4-yl-2-pyridin-4-yl-3H-imidazo[4,5-b]pyridine] are 1.650, 1.89 and 2.27.
Take `c1ccc2cc(-c3ccnc4c3ncn4C3CCNCC3)ccc2c1` [7-(2-naphthyl)-3-piperidin-4-yl-3H-imidazo[4,5-b]pyridine]: the “A = MAX FOLD Induction/DMSO CONTROL” value in series [1] amounted to 3.881. For the same compound, in series [2], the fold induction at 2 µM was 5.4, the fold induction at 20 µM was determined as 0.063 and the EC50 is 725 nM.
With `CN(C)C(=O)N1CCC(n2cnc3c(-c4ccc5ccccc5c4)ccnc32)CC1` [N,N-dimethyl-4-[7-(2-naphthyl)-3H-imidazo[4,5-b]pyridin-3-yl]piperidine-1-carboxamide], in series [1], the “A = MAX FOLD Induction/DMSO CONTROL” value is reported as 1.080. In series [2], the fold induction at 2 µM is 1.94 and the fold induction at 20 µM was 2.09.
With `O=C1OC2(c3ccc(O)cc3Oc3cc(O)ccc32)c2ccc(NC(=S)N3CCC(n4cnc5c(-c6ccc7ccccc7c6)ccnc54)CC3)cc21` [N-(3′,6′-dihydroxy-3-oxo-3H-spiro[2-benzofuran-1,9′-xanthen]-5-yl)-4-[7-(2-naphthyl)-3H-imidazo[4,5-b]pyridin-3-yl]piperidine-1-carbothioamide], in series [1], the “A = MAX FOLD Induction/DMSO CONTROL” value is recorded as 12.158. Further, in series [2], the fold induction at 2 µM worked out at 1.4, the fold induction at 20 µM worked out at 6.49 and the 50% effective concentration (EC50) turned out to be 10700 nM.
As for `CC(=O)Nc1ccc(-c2nc3c(-c4ccc5ccccc5c4)ccnc3n2C2CCNCC2)cc1` [N-{4-[7-(2-naphthyl)-3-piperidin-4-yl-3H-imidazo[4,5-b]pyridin-2-yl]phenyl}acetamide], the “A = MAX FOLD Induction/DMSO CONTROL” value in series [1] is given as 1.710. In series [2], the fold induction at 2 µM was 1.99.

Values taken from patent US20090069319A1, “IMIDAZOPYRIDINE ANALOGS AND THEIR USE AS AGONISTS OF THE WNT-BETA-CATENIN CELLULAR MESSAGING SYSTEM” (Wyeth, priority 2007, published 2009).
